# Laboratory results: patent publication US20160067221A1, “USE OF ERGOTHIONEINE FOR INDUCING ACTIVITY OF NRF2 IN CELL” (China Medical University, priority 2014, published 2016)
# Tested on: Nrf2
# Assay: Ergothioneine-induced Nrf2 nuclear translocation after kinase inhibitor pretreatment (Western blot)
# Format: cell-based, human
# Details: inhibitor 2.5 μM 30 minutes, then 500 nM ergothioneine 1 hour
# Method: Given that the ergothioneine can activate the Nrf2 to induce the expression of the downstream antioxidant genes; this example further investigates the pathway of the Nrf2 activated by the ergothioneine.
# The HaCaT cells are incubated with respective pharmacological inhibitors of p38 (SB203580; 20 μM), ERK (PD98059; 20 μM), JNK (SP600125; 20 μM), PI3K (LY294002; 20 μM), PKC (GF109203X; 2.5 μM), or ROS (NAC; 1 mM) for 30 minutes, and then incubated with 500 nM ergothioneine for 1 hour. After the incubation, nuclear extracts and cytosolic extracts are collected to observe the expression of the Nrf2 nuclear translocation. FIG. 12 illustrates that the ergothioneine induces a Nrf2-mediated antioxidant signaling pathway. The data result is represented by mean±SD values; n=3, wherein * represents ρ<0.05 compared to the control group.
smiles,measurement,value
CN(C)CCCn1cc(C2=C(c3c[nH]c4ccccc34)C(=O)NC2=O)c2ccccc21 [GF109203X],expression of the Nrf2 nuclear translocation,significantly inhibited
